According to publication PMC7296167, “SrrB, a Pseudo-Receptor Protein, Acts as a Negative Regulator for Lankacidin and Lankamycin Production in Streptomyces rochei” (Frontiers in Microbiology, 2020):

Columns and labels:
SrrB = target: T1, SrrB (Streptomyces rochei, UniProt Q83X25); assay: gel shift assay, dissociation from […]-labelled srrY promoter probe Y1; assay type: binding; settings: 0.5 nM probe Y1, 2,000 nM SrrB, 26 C, pH 8.0; DNA release read-out
T1 construct: pET32b(+) His6 fusion from E. coli BL21(DE3)pLysS; N-terminal tag removed with enterokinase
T1 sequence (Q83X25 1-228): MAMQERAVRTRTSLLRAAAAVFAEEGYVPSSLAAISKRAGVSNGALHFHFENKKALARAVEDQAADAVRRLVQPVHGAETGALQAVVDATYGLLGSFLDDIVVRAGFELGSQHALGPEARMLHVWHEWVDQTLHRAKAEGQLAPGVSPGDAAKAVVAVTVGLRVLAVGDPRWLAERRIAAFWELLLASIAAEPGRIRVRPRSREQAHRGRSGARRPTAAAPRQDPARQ

SrrA = target: T2, SrrA (Streptomyces rochei, UniProt Q83X22); assay: gel shift assay, dissociation from […]-labelled srrB probe B1 and srrY probe Y1; assay type: binding; settings: […] SRB1 on probe B1, concentration series on probe Y1; […] SrrA, […] probe, […] C, pH […]
T2 construct: recombinant, overexpressed in E. coli, prepared as in Yamamoto et al. 2008
T2 sequence (Q83X22 1-222): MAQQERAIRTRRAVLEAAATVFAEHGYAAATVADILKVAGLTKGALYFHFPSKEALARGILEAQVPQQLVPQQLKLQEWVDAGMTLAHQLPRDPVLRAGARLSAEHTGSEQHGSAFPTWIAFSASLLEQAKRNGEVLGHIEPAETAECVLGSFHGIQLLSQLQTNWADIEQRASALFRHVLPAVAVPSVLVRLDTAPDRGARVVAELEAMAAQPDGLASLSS

SMILES: CC1=C([C@H](O)CCCCC(=O)CC(C)C)C(=O)OC1O (some centres unmarked) [compound 7, SRB1]
- concentration required for dissociation (SrrB): 1 mM
- gel shift assay, dissociation from 32P-labelled srrB probe B1 and srrY probe Y1 (SrrA): Addition of SRB led to dissociation of SrrA from probe B1
